Measured values: ChEMBL document CHEMBL1157646, “Melanogenesis inhibitors from the desert plant Anastatica hierochuntica in B16 melanoma cells” (Bioorg Med Chem, 2010)
The source made the active and inactive calls. No cut-off for these calls is given here.

Experiments:
[1] = Effect on TRP2 mRNA expression in mouse B16-4A5 cells assessed as TRP2 mRNA/beta-actin mRNA expression ratio at 10 uM in presence of 1 mM theophylline after 72 hrs by RT-PCR; assay type: functional
[2] = Effect on TRP1 mRNA expression in mouse B16-4A5 cells assessed as TRP1 mRNA/beta-actin mRNA expression ratio at 10 uM in presence of 1 mM theophylline after 72 hrs by RT-PCR; assay type: functional
[3] = Effect on TRP2 mRNA expression in mouse B16-4A5 cells assessed as TRP2 mRNA/beta-actin mRNA expression ratio at 1 uM in presence of 1 mM theophylline after 72 hrs by RT-PCR; assay type: functional
[4] = Effect on tyrosinase mRNA expression in mouse B16-4A5 cells assessed as tyrosinase mRNA/beta-actin mRNA expression ratio at 1 uM in presence of 1 mM theophylline after 72 hrs by RT-PCR; assay type: functional
[5] = Effect on TRP1 mRNA expression in mouse B16-4A5 cells assessed as TRP1 mRNA/beta-actin mRNA expression ratio at 3 uM in presence of 1 mM theophylline after 72 hrs by RT-PCR; assay type: functional
[6] = Effect on tyrosinase mRNA expression in mouse B16-4A5 cells assessed as tyrosinase mRNA/beta-actin mRNA expression ratio at 10 uM in presence of 1 mM theophylline after 72 hrs by RT-PCR; assay type: functional
[7] = Effect on tyrosinase mRNA expression in mouse B16-4A5 cells assessed as tyrosinase mRNA/beta-actin mRNA expression ratio at 30 uM in presence of 1 mM theophylline after 72 hrs by RT-PCR; assay type: functional
[8] = Effect on TRP2 mRNA expression in mouse B16-4A5 cells assessed as TRP2 mRNA/beta-actin mRNA expression ratio at 3 uM in presence of 1 mM theophylline after 72 hrs by RT-PCR; assay type: functional
[9] = Effect on tyrosinase mRNA expression in mouse B16-4A5 cells assessed as tyrosinase mRNA/beta-actin mRNA expression ratio at 3 uM in presence of 1 mM theophylline after 72 hrs by RT-PCR; assay type: functional
[10] = Effect on TRP2 mRNA expression in mouse B16-4A5 cells assessed as TRP2 mRNA/beta-actin mRNA expression ratio at 30 uM in presence of 1 mM theophylline after 72 hrs by RT-PCR; assay type: functional
[11] = Effect on TRP1 mRNA expression in mouse B16-4A5 cells assessed as TRP1 mRNA/beta-actin mRNA expression ratio at 30 uM in presence of 1 mM theophylline after 72 hrs by RT-PCR; assay type: functional
[12] = Effect on TRP1 mRNA expression in mouse B16-4A5 cells assessed as TRP1 mRNA/beta-actin mRNA expression ratio at 1 uM in presence of 1 mM theophylline after 72 hrs by RT-PCR; assay type: functional
[13] = Inhibition of theophylline-stimulated melanogenesis in mouse B16-4A5 cells at 300 uM after 72 hrs; assay type: functional; conditions: B16-4A5, 72 h
[14] = Inhibition of theophylline-stimulated melanogenesis in mouse B16-4A5 cells at 1000 uM after 72 hrs; assay type: functional; conditions: B16-4A5, 72 h
cells [15] = conditions: Mus musculus, B16-4A5, 72 h, read-out: INH
Description: Inhibition of theophylline-stimulated melanogenesis in mouse B16-4A5 cells at 30 uM after 72 hrs

cells [16] = conditions: Mus musculus, B16-4A5, 72 h, read-out: INH; remark: listed apart in the source
Description: Inhibition of theophylline-stimulated melanogenesis in mouse B16-4A5 cells at 10 uM after 72 hrs

[17] = Inhibition of theophylline-stimulated melanogenesis in mouse B16-4A5 cells at 100 uM after 72 hrs; assay type: functional; conditions: B16-4A5, 72 h
cells [18] = conditions: Mus musculus, B16-4A5, 72 h, read-out: INH; remark: listed apart in the source
Description: Inhibition of theophylline-stimulated melanogenesis in mouse B16-4A5 cells at 3 uM after 72 hrs

cells [19] = conditions: Mus musculus, B16-4A5, 72 h, read-out: INH; remark: listed apart in the source
Description: Inhibition of theophylline-stimulated melanogenesis in mouse B16-4A5 cells at 1 uM after 72 hrs

[20] = Toxicity in mouse B16-4A5 cells assessed as inhibition of cell proliferation at 30 uM in presence of 1 mM theophylline after 72 hrs by WST8 dye reduction assay; assay type: cell-based
[21] = biological target: T1, Tyrosinase (Agaricus bisporus) (UniProt O42713); test: Inhibition of mushroom tyrosinase assessed as inhibition of melanin production from dopachrome by autoxidation at 100 uM
T1 sequence (whole entry): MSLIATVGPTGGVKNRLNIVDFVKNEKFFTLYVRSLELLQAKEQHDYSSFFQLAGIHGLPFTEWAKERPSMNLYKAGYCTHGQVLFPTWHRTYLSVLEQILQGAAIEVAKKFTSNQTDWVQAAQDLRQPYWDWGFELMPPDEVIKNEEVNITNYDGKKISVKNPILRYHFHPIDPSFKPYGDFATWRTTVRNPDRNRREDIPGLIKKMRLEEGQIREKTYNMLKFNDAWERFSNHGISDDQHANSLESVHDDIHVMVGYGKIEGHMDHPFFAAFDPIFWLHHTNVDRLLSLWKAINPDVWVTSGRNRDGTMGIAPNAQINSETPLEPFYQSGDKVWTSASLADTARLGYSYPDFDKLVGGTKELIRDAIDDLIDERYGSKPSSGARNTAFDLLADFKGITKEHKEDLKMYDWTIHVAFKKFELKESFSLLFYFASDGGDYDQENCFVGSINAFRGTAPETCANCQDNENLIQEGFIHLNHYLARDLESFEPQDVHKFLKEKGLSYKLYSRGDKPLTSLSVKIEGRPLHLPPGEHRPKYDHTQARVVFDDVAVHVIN

[22] = Toxicity in mouse B16-4A5 cells assessed as inhibition of cell proliferation at 10 uM in presence of 1 mM theophylline after 72 hrs by WST8 dye reduction assay; assay type: cell-based
[23] = biological target: T1, Tyrosinase (Agaricus bisporus); test: Inhibition of mushroom tyrosinase at 1 uM
[24] = Toxicity in mouse B16-4A5 cells assessed as inhibition of cell proliferation at 1 uM in presence of 1 mM theophylline after 72 hrs by WST8 dye reduction assay; assay type: cell-based
[25] = biological target: T1, Tyrosinase (Agaricus bisporus); test: Inhibition of mushroom tyrosinase at 3 uM
[26] = Toxicity in mouse B16-4A5 cells assessed as inhibition of cell proliferation at 3 uM in presence of 1 mM theophylline after 72 hrs by WST8 dye reduction assay; assay type: cell-based
[27] = Toxicity in mouse B16-4A5 cells assessed as inhibition of cell proliferation in presence of 1 mM theophylline after 72 hrs by WST8 dye reduction assay; assay type: cell-based
Tyrosinase = biological target: T2, Tyrosinase (Agaricus bisporus, UniProt O42713); test: Inhibition of mushroom tyrosinase
T2 sequence (O42713 whole entry): T1 sequence (whole entry)

[28] = biological target: T3, Mitogen-activated protein kinase 1 and 3 (ERK2 and ERK1) (Mus musculus) (UniProt P63085+Q63844); test: Inhibition of ERK1/2 phosphorylation in mouse B16-4A5 cells at 100 uM in presence of 1 mM theophylline after 72 hrs by immunoblot; assay type: cell-based
T3 sequence (P63085 whole entry, looked up): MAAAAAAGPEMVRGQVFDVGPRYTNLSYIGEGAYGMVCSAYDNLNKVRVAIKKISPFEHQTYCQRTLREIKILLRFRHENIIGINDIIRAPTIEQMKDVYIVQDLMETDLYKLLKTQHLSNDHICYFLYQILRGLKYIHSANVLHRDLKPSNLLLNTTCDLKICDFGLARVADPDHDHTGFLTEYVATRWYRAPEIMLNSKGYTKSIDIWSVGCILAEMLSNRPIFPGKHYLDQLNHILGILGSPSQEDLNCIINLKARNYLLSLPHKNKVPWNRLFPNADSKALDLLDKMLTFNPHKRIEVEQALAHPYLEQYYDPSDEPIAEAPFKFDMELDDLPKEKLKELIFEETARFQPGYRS
T3 sequence (Q63844 whole entry, looked up): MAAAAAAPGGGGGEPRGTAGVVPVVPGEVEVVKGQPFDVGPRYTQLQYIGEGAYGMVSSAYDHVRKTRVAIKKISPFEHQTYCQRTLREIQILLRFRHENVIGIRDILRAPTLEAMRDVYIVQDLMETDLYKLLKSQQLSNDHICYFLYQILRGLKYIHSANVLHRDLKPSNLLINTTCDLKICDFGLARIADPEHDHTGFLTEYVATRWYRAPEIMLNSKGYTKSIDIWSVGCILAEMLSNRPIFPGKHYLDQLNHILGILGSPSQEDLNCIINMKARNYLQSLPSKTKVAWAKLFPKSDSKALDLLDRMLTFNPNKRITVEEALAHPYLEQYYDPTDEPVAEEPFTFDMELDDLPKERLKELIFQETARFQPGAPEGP

[29] = biological target: T3, Mitogen-activated protein kinase 1 and 3 (ERK2 and ERK1) (Mus musculus); test: Inhibition of ERK1/2 phosphorylation in mouse B16-4A5 cells at 10 to 30 uM in presence of 1 mM theophylline after 72 hrs by immunoblot; assay type: cell-based

| Compound | Ratio [1] | Ratio [2] | Ratio [3] | Ratio [4] | Ratio [5] | Ratio [6] | Ratio [7] | Ratio [8] | Ratio [9] | Ratio [10] | Ratio [11] | Ratio [12] | inhibition at 30 µM (cells [15]) | inhibition at 10 µM (cells [16]) | inhibition at 3 µM (cells [18]) | inhibition at 1 µM (cells [19]) | inhibition at 72 h, 30 µM [20] | inhibition [21] | inhibition [23] | inhibition [25] | further results |
| --- | --- | --- | --- | --- | --- | --- | --- | --- | --- | --- | --- | --- | --- | --- | --- | --- | --- | --- | --- | --- | --- |
| COc1cccc(-c2cc(=O)c3ccccc3o2)c1N | 1.3 | 1.32 | 1.12 | 1.01 | 1.18 | 1.61 | 1.79 | 1.2 | 1.23 | 1.69 | 1.53 | 0.92 |  |  |  |  |  |  |  |  |  |
| OC[C@H]1O[C@@H](Oc2ccc(O)cc2)[C@H](O)[C@@H](O)[C@@H]1O [ARBUTIN] |  |  |  |  |  |  |  |  |  |  |  |  | 20.4% | 10.6% |  |  |  |  |  |  | inhibition at 300 µM [13]: 61.5%; inhibition at 1000 µM [14]: 83.7%; inhibition at 100 µM [17]: 38.1% |
| O=C1C[C@@H](c2ccc(O)c(O)c2)Oc2cc(O)cc(O)c21 [ERIODICTYOL] |  |  |  |  |  |  |  |  |  |  |  |  | 46.3% | 32.3% | 10.5% | 6.5% | < 8.8% | inactive |  |  | inhibition at 100 µM [17]: 70.5% |
| COc1cc([C@H]2Oc3ccc([C@H]4Oc5cc(O)cc(O)c5C(=O)[C@@H]4O)cc3O[C@@H]2CO)ccc1O [ISOSILYBIN A] | 0.63 | 1.12 | 0.68 | 0.73 | 1.26 | 0.85 | 0.56 | 0.63 | 0.97 | 0.36 | 0.6 | 1.11 | 72.1% | 50.2% | 19.8% | 11.7% | 16% | inactive | 5.1% | 7% | inhibition at 72 h, 10 µM [22]: -2.5%; inhibition at 72 h, 1 µM [24]: -2.2%; inhibition at 72 h, 3 µM [26]: -1.5% |
| COc1cc([C@@H]2Oc3ccc([C@H]4Oc5cc(O)cc(O)c5C(=O)[C@@H]4O)cc3O[C@H]2CO)ccc1O [ISOSILYBIN B] | 0.74 | 1.14 | 0.97 | 0.79 | 1.02 | 1.33 | 0.87 | 0.7 | 1.15 | 0.64 | 1.14 | 1.22 | 73.4% | 58% | 37.5% | 18.7% | < 8.8% | inactive | 4.2% | 4.8% |  |
| O=c1cc(-c2ccc(O)c(O)c2)oc2cc(O)cc(O)c12 [LUTEOLIN] |  |  |  |  |  |  |  |  |  |  |  |  | 76.7% | 38.1% | 13.5% | 6.2% | 23.4% | inactive | 6.4% | 7.1% | inhibition at 72 h, 10 µM [22]: 4%; IC50 at 72 h [27]: > 100 µM; inhibition at 72 h, 1 µM [24]: -4.8%; inhibition at 72 h, 3 µM [26]: -4.9% |
| O=c1c(O)c(-c2ccc(O)c(O)c2)oc2cc(O)cc(O)c12 [QUERCETIN] |  |  |  |  |  |  |  |  |  |  |  |  | 72.5% | 34.3% | 17.1% | 13.9% | 11.9% | inactive | 3.5% | 4.8% | inhibition at 72 h, 10 µM [22]: -8.6%; inhibition at 72 h, 1 µM [24]: -8.8%; IC50 (Tyrosinase): 31 µM; inhibition at 72 h, 3 µM [26]: -7.7% |
| COc1cc([C@H]2Oc3cc([C@H]4Oc5cc(O)cc(O)c5C(=O)[C@@H]4O)ccc3O[C@@H]2CO)ccc1O [SILYBIN A] | 2 | 1.6 | 0.95 | 0.92 | 0.89 | 1.93 | 2.11 | 1 | 1.12 | 1.6 | 1.07 | 0.79 | 64.7% | 24.4% | 18.8% | 9.2% | 33.8% | inactive | 8.4% | 10.3% | inhibition at 72 h, 10 µM [22]: 7.5%; IC50 at 72 h [27]: > 100 µM; inhibition at 72 h, 1 µM [24]: -5.7%; inhibition [28]: Active; inhibition at 72 h, 3 µM [26]: -10.7% |
| COc1cc([C@@H]2Oc3cc([C@H]4Oc5cc(O)cc(O)c5C(=O)[C@@H]4O)ccc3O[C@H]2CO)ccc1O [SILYBIN B] | 1.69 | 1.35 | 0.78 | 0.89 | 1.12 | 1.27 | 0.59 | 1.31 | 0.95 | 1.03 | 0.73 | 0.88 | 33% | 10.2% | 3% | -0.2% | 44.4% |  | 5.7% | 8.4% | inhibition at 72 h, 10 µM [22]: 11.8%; IC50 at 72 h [27]: > 100 µM; inhibition at 72 h, 1 µM [24]: -2%; inhibition [29]: Active; inhibition at 72 h, 3 µM [26]: -1.4% |
